Common to all, as to assay type: cell-based
Experiment [1] addresses T1, wild type K-Ras (Homo sapiens, UniProt P01116).
T1 construct: expressed in transfected cells; host or cells: 293H cells
Description: G-LISA Ras activation, 293H cells transfected with Ras wild-type, EGF stimulated. The settings on record: compound 1 hour, then 100 ng/ml EGF 2 minutes. On the procedure: (§1) 293H cells were seeded in 6-wells at 0.6×10^6 cells per well and transfected next day with 5 μg of Ras wild-type, or G12C, G12D or G12V mutant DNA plasmid vector using transfection reagent Lipofectamine 3000. Next day cells were treated with 3.125-25 μM of Ras compounds for 1 hour. Wild-type transfected cells were subsequently treated with 100 ng/ml EGF for 2 minutes. Cells were washed once in ice-cold PBS, lysed in complete lysis buffer on ice, and processed by G-LISA according to Cytoskeleton protocol.

The target in experiment [2] is T2, K-Ras G12D (Homo sapiens, UniProt P01116, G12D).
T2 construct: expressed in transfected cells; host or cells: 293H cells
T2 sequence (P01116 whole entry G12D): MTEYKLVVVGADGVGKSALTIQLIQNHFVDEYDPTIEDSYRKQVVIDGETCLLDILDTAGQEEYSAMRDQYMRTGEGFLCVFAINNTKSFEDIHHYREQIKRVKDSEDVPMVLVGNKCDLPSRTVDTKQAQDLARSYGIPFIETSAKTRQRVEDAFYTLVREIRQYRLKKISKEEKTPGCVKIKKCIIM
Description: G-LISA Ras activation, 293H cells transfected with G12D mutant. As to conditions: compound 1 hour. On the procedure: as §1

Experiment [3] relates to Ishikawa (K-Ras wild type cell line). Description: Viability assay (CellTiterBlue, 72 hr) Ishikawa. As to conditions: Homo sapiens, GI50, CellTiterBlue, Ishikawa K-Ras wild-type. The gist of the method: (§2)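 1000 cells/well, 18 hr pre-incubation at 37 °C; compound added from DMSO stock, 0.5% DMSO final; 72 hr; CellTiterBlue 3 hr, fluorescence Ex550/Em590; GI50 normalized to DMSO = 100%, 100 uM tamoxifen = 0% viability.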

Experiment [4] deals with HCC827 (K-Ras wild type cell line). Description: Viability assay (CellTiterBlue, 72 hr) HCC827. As to conditions: Homo sapiens, GI50, CellTiterBlue, HCC827 K-Ras wild-type. The gist of the method:
as §2

For experiment [5], the system named is Panc1-G12D. Description: Viability assay (CellTiterBlue, 72 hr) Panc1. The settings on record: Homo sapiens, PANC-1, GI50, CellTiterBlue, Panc1 K-Ras G12D, read-out: 72 hr Cell Viability Panc1 (G12D). The gist of the method: as §2
In general terms: The colour change of resazurin is a common sign of viable cells or microbes.

The subject of experiment [6] is Panc10.05-G12D. As to the kind of experiment: Viability assay (CellTiterBlue, 72 hr) Panc10.05. The settings on record: Homo sapiens, Panc1005, GI50, CellTiterBlue, Panc10.05 K-Ras G12D, read-out: 72 hr Cell Viability Panc10.05 (G12D). The gist of the method: as §2
In experiment [7] the test system is HCT116-G31D. As to the kind of experiment: Viability assay (CellTiterBlue, 72 hr) HCT116. As to conditions: Homo sapiens, HCT-116, GI50, CellTiterBlue, HCT116 K-Ras G13D, read-out: 72 hr Cell Viability HCT116 (G13D). The gist of the method:
as §2

Experiment [8] relates to phospho-ERK in Panc1 (G12D). Description: In-Cell Western phospho-ERK, Panc1. The settings on record: Homo sapiens, PANC-1, 1 h; Panc1, one hour treatment; read-out: In-Cell Western Panc1 (G12D) Erk (P). On the procedure:
(§3) In-cell phosphorylation assays for Erk and Akt were performed on several of the compounds and exemplary results are shown in Table 3 below using HCC827 and A375 cell lines for wild type K-Ras and Panc1 and Panc10.05 cell lines for G12D K-Ras mutants. Results are expressed in μM and corresponding structures are shown in FIGS. 2A-2G and Examples 1-152, above.
(§4) Cells are seeded in complete medium into black sided, clear-bottom 384-well microplates at 3000 cells/[…]/well. Plates are returned to 37° C. CO2 incubator for 18 hr. Drug is made as 200× in DMSO and diluted into medium to 10×. To each well is added 4 ul 10× test article or controls, and plates are returned to the incubator. Final assay DMSO concentration is 0.5%. After one hour, cells are fixed in formaldehyde, rinsed & permeabilized with triton X-100, and blocked with BSA/Goat serum blocking solution. Primary phospho-Akt and phospho-ERK antibodies are added and plates are incubated overnight at 4° C. Plates are rinsed with Tween-20 wash buffer and secondary antibody (Goat anti-rabbit, Thermofisher) is added. After 2 hours, plates are rinsed in Tween-20 wash buffer, and then PBS. Plates are imaged on the Celigo (Nexcelom) and cellular fluorescence is quantitated. Full inhibition of phospho-Akt is achieved with 1 uM BEZ235 (Sellekchem), while full inhibition of phospho-ERK is achieved with 1 uM MEK Inhibitor II Calbiochem). EC50 values are calculated using Graphpad Prism.

For experiment [9], the system named is phospho-Akt in Panc1 (G12D). Description: In-Cell Western phospho-Akt, Panc1. As to conditions: Homo sapiens, PANC-1, 1 h; Panc1, one hour treatment; read-out: In-Cell Western Panc1 (G12D) Akt (P). On the procedure: as §3, §4
Experiment [10] has as its system phospho-ERK in Panc10.05 (G12D). Description: In-Cell Western phospho-ERK, Panc10.05. As to conditions: Homo sapiens, Panc1005, 1 h; Panc10.05, one hour treatment; read-out: In-Cell Western Panc10.05 (G12D) Erk (P). On the procedure: as §3, §4
The subject of experiment [11] is phospho-Akt in Panc10.05 (G12D). Description: In-Cell Western phospho-Akt, Panc10.05. The settings on record: Homo sapiens, Panc1005, 1 h; Panc10.05, one hour treatment; read-out: In-Cell Western Panc10.05 (G12D) Akt (P). On the procedure: as §3, §4
The test system of experiment [12] is U87-MG (K-Ras wild type cell line). As to the kind of experiment: Viability assay (CellTiterBlue, 72 hr) U87-MG. As to conditions: Homo sapiens, U-87 MG, GI50, CellTiterBlue, U87-MG K-Ras wild-type. The gist of the method:
as §2

T1 sequence (P01116 whole entry): as the sequence (P01116 whole entry G12D) above, with D12G counted along it

As for `Cc1cc(C(=O)Nc2nc(-c3ccc4c(c3)CCC(=O)N4)cs2)n(C)n1` [Compound 22, 1,3-dimethyl-N-(4-(2-oxo-1,2,3,4-tetrahydroquinolin-6-yl)thiazol-2-yl)-1H-pyrazole-5-carboxamide], the IC50 was 12.6 µM in [1]; 4.6 µM in [2]; 4 µM in [3]; 22 µM in experiment [4]; 1.3 µM in experiment [5]; 0.734 µM in experiment [6]. In [7], the IC50 is > 25 µM. The EC50 was > 25000 nM in experiment [8], > 25 µM in experiment [9], > 25000 nM in experiment [10] and 27 µM in experiment [11].

Turning to `Cc1nc(C)c(C(=O)Nc2nc(-c3ccc4c(c3)CCC(=O)N4Cc3ccccc3)cs2)o1` [Compound 60, N-(4-(1-benzyl-2-oxo-1,2,3,4-tetrahydroquinolin-6-yl)thiazol-2-yl)-2,4-dimethyloxazole-5-carboxamide], the IC50 in experiment [1] came out at 8.6 µM; in [2], 7.4 µM; in experiment [3], 6 µM; in [12], 14 µM; in experiment [5], 2 µM; in [6], 13 µM. Besides, in [7], the IC50 was 7 µM. Also, the EC50 in [8] was 4000 nM; in [9] it was 6 µM; in experiment [10], 3000 nM.

For `CCc1nc(C)c(C(=O)Nc2nc(-c3ccc4c(c3)CCC(=O)N4Cc3ccccc3)cs2)o1` [Compound 59, N-(4-(1-benzyl-2-oxo-1,2,3,4-tetrahydroquinolin-6-yl)thiazol-2-yl)-2-ethyl-4-methyloxazole-5-carboxamide], the IC50 in [1] was determined as 6.5 µM; in experiment [2], 5.8 µM; in [3] it was 4 µM; in [12], 10 µM; in experiment [5], 2 µM; in experiment [6], 11 µM. The IC50 in experiment [7] was determined as 6 µM. The values for the EC50 in experiment [8], in [9] and in experiment [10] were 3000 nM, 6 µM and 3000 nM, respectively.

Take `Cc1nc(C2CC2)oc1C(=O)Nc1nc(-c2ccc3c(c2)CCC(=O)N3CCc2ccccc2)cs1` [Compound 61, 2-cyclopropyl-4-methyl-N-(4-(2-oxo-1-phenethyl-1,2,3,4-tetrahydroquinolin-6-yl)thiazol-2-yl)oxazole-5-carboxamide]: the IC50 in experiment [1] turned out to be 8.5 µM; in [2] it was 5.1 µM; in experiment [3], 2.1 µM; in [12], 1.3 µM; in experiment [5], 1.6 µM; in [6] it was 0.87 µM. Also, the IC50 in experiment [7] came to 3 µM. Also, the EC50 in [8] was determined as 528 nM; in experiment [9], 2 µM; in [10] it was 2000 nM.

For the compound `Cc1nc(CNC(=O)OC(C)(C)C)sc1C(=O)Nc1nc(-c2ccc3c(c2)CCC(=O)N3)cs1` [Compound 143, tert-butyl ((4-methyl-5-((4-(2-oxo-1,2,3,4-tetrahydroquinolin-6-yl)thiazol-2-yl)carbamoyl)thiazol-2-yl)methyl)carbamate], the IC50 is 19 µM in experiment [1]; > 25 µM in experiment [3]; 9 µM in experiment [12]; 7 µM in experiment [5]; 4 µM in experiment [6]; > 25 µM in experiment [7]. Also, the EC50 in experiment [8] was determined as 8000 nM; in experiment [9], 14 µM; in experiment [10], 8000 nM; in [11] it was 12 µM.

Take `Cc1nc(C2CCCC2)sc1C(=O)Nc1nc(-c2ccc3c(c2)CCC(=O)N3)cs1` [Compound 145, 2-cyclopentyl-4-methyl-N-(4-(2-oxo-1,2,3,4-tetrahydroquinolin-6-yl)thiazol-2-yl)thiazole-5-carboxamide]: the IC50 in experiment [1] was > 25 µM; in experiment [2] it was 24 µM; in [3] it was > 25 µM; in experiment [12] it was 16 µM; in [5], 11 µM; in experiment [6] it was 7 µM. Further, the IC50 in experiment [7] is > 25 µM. Also, the EC50 in experiment [8] turned out to be 5000 nM; in [9], 18 µM; in experiment [10], 7000 nM; in experiment [11] it was 17 µM.

Take `CCc1nc(C)c(C(=O)Nc2nc(-c3ccc4c(c3)CCC(=O)N4)cs2)o1` [Compound 5, 2-ethyl-4-methyl-N-(4-(2-oxo-1,2,3,4-tetrahydroquinolin-6-yl)thiazol-2-yl)oxazole-5-carboxamide]: the IC50 in experiment [1] was 14.1 µM; in experiment [2] it was 10.2 µM; in experiment [3] it was > 25 µM; in [12], > 25 µM; in experiment [5], 6 µM; in experiment [6], 19 µM. Besides, the IC50 in experiment [7] amounted to 22 µM. The EC50 was 13 µM in experiment [9] and 8 µM in experiment [11].

For the compound `Cc1nc(C2CCOC2)oc1C(=O)Nc1nc(-c2ccc3c(c2)CCC(=O)N3)cs1` (stereo not drawn) [Compound 10, 4-methyl-N-(4-(2-oxo-1,2,3,4-tetrahydroquinolin-6-yl)thiazol-2-yl)-2-(tetrahydrofuran-3-yl)oxazole-5-carboxamide], the IC50 in experiment [1] was > 25 µM; in experiment [2] it was 22 µM; in [3] it was 2 µM; in experiment [12] it was 5 µM; in experiment [4], 23 µM; in experiment [5], 4 µM. For the same compound, the IC50 in experiment [6] was 2 µM; in experiment [7], 5 µM.

In the case of `Cc1nc(C(C)C)sc1C(=O)Nc1nc(-c2ccc3c(c2)CCC(=O)N3)cs1` [Compound 3, 2-isopropyl-4-methyl-N-(4-(2-oxo-1,2,3,4-tetrahydroquinolin-6-yl)thiazol-2-yl)thiazole-5-carboxamide], the IC50 in experiment [1] is 12 µM; in [3], > 25 µM; in [12] it was 12 µM; in experiment [5] it was 5.5 µM; in experiment [6] it was 14 µM; in experiment [7] it was 18 µM. Further, the EC50 was found to be 2000 nM in experiment [8], 9 µM in [9], 3000 nM in [10] and 8 µM in [11].

For the compound `Cc1nc(C)c(C(=O)Nc2nc(-c3ccc4c(c3)CCC(=O)N4CC3CCCCC3)cs2)o1` [Compound 62, N-(4-(1-(cyclohexylmethyl)-2-oxo-1,2,3,4-tetrahydroquinolin-6-yl)thiazol-2-yl)-2,4-dimethyloxazole-5-carboxamide], the IC50 in [1] was > 25 µM; in experiment [2], 21.7 µM; in experiment [3], 3 µM; in experiment [12] it was 3 µM; in experiment [5], 5 µM; in experiment [6] it was 2 µM. In addition, the IC50 in experiment [7] was determined as 4 µM. Further, the EC50 in experiment [8] was 2000 nM; in [9] it was 6 µM; in [10] it was 6000 nM.

The values above are taken from US10344026B2, “Compositions and methods of targeting mutant K-ras” (NANTBIO, INC., priority 2017, dated 2019).
